Measurements from patent US10927118B2, “Inhibitors of influenza virus replication and uses thereof” (SUNSHINE LAKE PHARMA CO., LTD., priority 2017, dated 2021).

Experiments:
virus H1N1 A/Weiss/43 = assay: microbe, parasite or virus in culture; type: cell-based; details: 120 h; inhibition of CPE of influenza virus A/Weiss/43(H1N1) in MDCK cells, 5 days, CCK-8
in vivo = details: SD, rat
Description: Pharmacokinetic characteristics of the compounds of the invention in SD rats were evaluated. The compounds disclosed herein were administered in form of a saline solution containing 5% DMSO, 5% Kolliphor HS 15 and 90% Saline. For intravenous administration (iv), the animals were administered with a dose of 1 mg/kg, and blood samples (0.3 mL) were collected at the time points of 0.083, 0.25, 0.5, 1.0, 2.0, 5.0, 7.0 and 24 h after drug administration, then each blood sample was processed to separate plasma by centrifugation at 3000 rpm or 4000 rpm for 10 minutes. For oral administration (po), the animals were administered with a dose of 5 mg/kg, and blood samples (0.3 mL) were collected at the time points of 0.25, 0.5, 1.0, 2.0, 5.0, 7.0 and 24 h after drug administration, then each blood sample was processed to separate plasma by centrifugation at 3000 rpm or 4000 rpm for 10 minutes. Plasma samples were collected and stored at −20° C. or −70° C. until LC/MS/MS analysis.

| SMILES | EC50 (virus H1N1 A/Weiss/43) [nM] | also measured |
| --- | --- | --- |
| O=C(O)C1C2CCC(CC2)C1Nc1cc(-c2ccco2)nc(-c2c[nH]c3ncncc23)n1 (racemic) [Example 2, (+/−)-trans-3-((6-(furan-2-yl)-2-(7H-pyrrolo[2,3-d]pyrimidin-5-yl)pyrimidin-4-yl)amino)bicyclo[2.2.2]octane-2-carboxylic acid] | 5.19 | AUC(0-inf) (in vivo; iv, 1 mg/kg): 4020 ng·h/mL; AUC(0-t) (in vivo; iv, 1 mg/kg): 3190 ng·h/mL; clearance (in vivo; iv, 1 mg/kg): 10.7 mL/min/kg; AUC(0-inf) (in vivo; po, 5 mg/kg): 12900 ng·h/mL; AUC(0-t) (in vivo; po, 5 mg/kg): 12700 ng·h/mL |
| Cn1ccc2c(NC3C4CCC(CC4)C3C(=O)O)nc(-c3c[nH]c4ncncc34)nc21 (racemic) [Example 3, (+/−)-trans-3-((7-methyl-7H,7′H-[2,5′-bipyrrolo[2,3-d]pyrimidin]-4-yl)amino)bicyclo[2.2.2]octane-2-carboxylic acid] | 9.41 | AUC(0-inf) (in vivo; iv, 1 mg/kg): 4320 ng·h/mL; AUC(0-t) (in vivo; iv, 1 mg/kg): 4280 ng·h/mL; clearance (in vivo; iv, 1 mg/kg): 9.8 mL/min/kg; AUC(0-inf) (in vivo; po, 5 mg/kg): 15700 ng·h/mL; AUC(0-t) (in vivo; po, 5 mg/kg): 15600 ng·h/mL |
| CC(C)n1ccc2c(NC3C4CCC(CC4)C3C(=O)O)nc(-c3c[nH]c4ncncc34)nc21 (racemic) [Example 4, (+/−)-trans-3-((7-isopropyl-7H,7′H-[2,5′-bipyrrolo[2,3-d]pyrimidin]-4-yl)amino) bicyclo[2.2.2]octane-2-carboxylic acid] | 6.56 |  |
| O=C(O)C1C2CCC(CC2)C1Nc1nc(-c2c[nH]c3ncncc23)nc(-c2ccco2)c1F (racemic) [Example 7, (+/−)-trans-3-((5-fluoro-6-(furan-2-yl)-2-(7H-pyrrolo[2,3-d]pyrimidin-5-yl)pyrimidin-4-yl)amino)bicyclo[2.2.2]octane-2-carboxylic acid] | 4.02 |  |
| O=C(O)C1C2CCC(CC2)C1Nc1cc(-c2ccoc2)nc(-c2c[nH]c3ncncc23)n1 (racemic) [Example 9, (+/−)-trans-3-((6-(furan-3-yl)-2-(7H-pyrrolo[2,3-d]pyrimidin-5-yl)pyrimidin-4-yl)amino)bicyclo[2.2.2]octane-2-carboxylic acid] | 9.57 |  |
| O=C(O)C1C2CCC(CC2)C1Nc1cc(-c2cc3ccccc3o2)nc(-c2c[nH]c3ncncc23)n1 (racemic) [Example 11, (+/−)-trans-3-((6-(benzofuran-2-yl)-2-(7H-pyrrolo[2,3-d]pyrimidin-5-yl)pyrimidin-4-yl)amino)bicyclo[2.2.2]octane-2-carboxylic acid] | 14.4 |  |
| O=C(O)C1C2CCC(CC2)C1Nc1cc(C#Cc2ccccc2)nc(-c2c[nH]c3ncncc23)n1 (racemic) [Example 12, (+/−)-trans-3-((6-(phenylethynyl)-2-(7H-pyrrolo[2,3-d]pyrimidin-5-yl)pyrimidin-4-yl)amino)bicyclo[2.2.2]octane-2-carboxylic acid] | 7.24 |  |
| O=C(O)C1C2CCC(CC2)C1Nc1nc(-c2c[nH]c3ncncc23)nc(-c2ccccc2)c1F (racemic) [Example 13, (+/−)-trans-3-((5-fluoro-6-phenyl-2-(7H-pyrrolo[2,3-d]pyrimidin-5-yl)pyrimidin-4-yl)amino)bicyclo[2.2.2]octane-2-carboxylic acid] | 8.68 |  |
| Cn1cc(-c2cc(NC3C4CCC(CC4)C3C(=O)O)nc(-c3c[nH]c4ncncc34)n2)cn1 (racemic) [Example 14, (+/−)-trans-3-((6-(1-methyl-1H-pyrazol-4-yl)-2-(7H-pyrrolo[2,3-d]pyrimidin-5-yl)pyrimidin-4-yl)amino)bicyclo[2.2.2]octane-2-carboxylic acid] | 6.32 |  |
| O=C(O)C1C2CCC(CC2)C1Nc1nc(-c2c[nH]c3ncncc23)nc2ccccc12 (racemic) [Example 18, (+/−)-trans-3-((2-(7H-pyrrolo[2,3-d]pyrimidin-5-yl)quinazolin-4-yl)amino) bicyclo[2.2.2]octane-2-carboxylic acid] | 17.5 |  |
| O=C(O)C1C2CCC(CC2)C1Nc1nc(-c2c[nH]c3ncncc23)nc2sccc12 (racemic) [Example 20, (+/−)-trans-3-((2-(7H-pyrrolo[2,3-d]pyrimidin-5-yl)thieno[2,3-d]pyrimidin-4-yl)amino)bicyclo[2.2.2]octane-2-carboxylic acid] | 19.2 |  |
| O=C(O)C1C2CCC(CC2)C1Nc1nc(-c2c[nH]c3ncncc23)ncc1F (stereo not shown) [Control compound A, reference compound] | > 100000 |  |
